Experimental data published in patent US20250223628A1, “METHODS OF IMPROVING SURVIVAL AND ELIMINATING TREATMENT-LIMITING TOXICITIES OF DICHLOROACETATE IN PATIENTS WITH PYRUVATE DEHYDROGENASE COMPLEX DEFICIENCY” (SAOL INTERNATIONAL DEVELOPMENT LTD., priority 2024, published 2025).
Where two headings read alike, the source gives them in different places.

Columns and labels:
patients with PDCD [1] = assay: Survival analysis of DCA treatment cohort versus DeBrosse natural history cohort; assay type: in vivo, human; details: for Adjusted Odds Ratio (95% CI): DCA vs natural history
Experimental: As a result, an analysis procedure was identified that used the data available in the DeBrosse natural history study to assess whether or not DCA extended life. The analysis was conducted to answer the following questions: • a. Did the year of birth have any effect on survival? For example, has standard of care improved. • b. Is the primary driver of survival differences from natural history driven by the ketogenic diet, the current standard of care, although empirical approach to managing PDCD patients? • c. Once the population is controlled for an index age, gender and age of disease onset, does DCA provide a survival benefit? • d. Once the population is controlled for an index age and age of disease onset, does DCA provide a survival benefit? • e. Once the population has the maximum duration of follow-up, including with patients that discontinued treatment, does DCA provide a survival benefit?
After accounting for two patients with multiple exclusion criteria, 34 patients (14 males and 20 females) from the DeBrosse study remain for potential matching for the current analyses.
Baseline characteristics related to drug and non-drug treatment, age at the earliest recorded of first related symptom, initiation of the ketogenic diet or diagnosis and other baseline demographics were compared for each analysis. It was notable that the Phase III cohort had more females. This was controlled by conducting a 1:1 matched cohort in the primary analysis that requires gender matching.
A summary of all analyses conducted with both Kaplan-Meier log-rank statistics and hazard/odds ratio reductions are provided below: […]

[2] = cited from earlier work
patients with PDCD [3] = assay: Prospective, randomized, double-blind, placebo-controlled crossover study with GSTZ1 haplotype-based DCA dosing and open-label extension; assay type: in vivo, human
Experimental: A prospective, randomized, double-blind, placebo-controlled crossover study was conducted in patients with PDCD. This study was the first study to prospectively use GSTZ1 haplotype testing to identify a dose that may help to mitigate the risk of peripheral neuropathy from chronic administration of DCA. These patients were treated with either DCA or placebo for 4 months, provided placebo for a 1-month washout period and then were placed on the placebo or DCA, whichever they had not taken prior. Patients then had the option to continue on open-label DCA until the ultimate completion of the study or regulatory approval. 34 PDCD patients were recruited into the study. 7 (21%) of these patients were prospectively identified as “slow metabolizers”. Rather than having a dose of 25 mg/kg/day, these patients were provided DCA doses at 12.5 mg/kg/day. Both dosing groups took DCA in two equal, weight-based doses. This was the first prospective study completed using the haplotype testing and conducted solely in the PDCD patient population.
The study had anticipated a 20% dropout rate due to death or peripheral neuropathy.

[4] = test system: patients with congenital lactic acidosis (CLA); details: 25 mg/kg broken into two daily doses, cited from earlier work
[5] = Abdelmak 2013, Congenital Lactic Acidosis, 8 total patients
[6] = Dunbar 2014, Recurrent Malignant Brain Tumor, 8 total patients
[7] = Kaufmann 2006, MELAS, 15 total patients
[8] = Michelakis 2017, Pulmonary Arterial Hypertension, 20 total patients
[9] = Stacpoole 2008, Congenital Lactic Acidosis, 36 total patients

O=C(O)C(Cl)Cl [DCA, Dichloroacetate]
Adjusted Odds Ratio (95% CI) (patients with PDCD [1]; Full Cohort Comparison, multivariate P 0.0065): 0.014
Adjusted Odds Ratio (95% CI) (patients with PDCD [1]; Matched on Age and Sex, Excluding 1980s Patients with Extended Follow-Up, multivariate P 0.0055): 0.023
Adjusted Odds Ratio (95% CI) (patients with PDCD [1]; Matched on Age and Sex, Excluding 1980s Patients, multivariate P 0.0033): 0.0072
Adjusted Odds Ratio (95% CI) (patients with PDCD [1]; Matched on Age, multivariate P 0.0012): 0.0071
Adjusted Odds Ratio (95% CI) (patients with PDCD [1]; Matched on Sex and Follow-Up Duration, multivariate P 0.024): 0.026
Adjusted Odds Ratio (95% CI) (patients with PDCD [1]; Primary Analysis with Extended Follow-Up, multivariate P 0.0029): 0.013
Adjusted Odds Ratio (95% CI) (patients with PDCD [1]; Primary Analysis: Matched on Age and Sex, multivariate P 0.0061): 0.011
DCA Treatment Cohort Mortality Rate (95% CI) (patients with PDCD [1]; Full Cohort Comparison, N 33, log rank P 0.003): 0.00
DCA Treatment Cohort Mortality Rate (95% CI) (patients with PDCD [1]; Matched on Age and Sex with Replacement with Extended Follow-Up, N 31, log rank P 0.0443): 1.38
DCA Treatment Cohort Mortality Rate (95% CI) (patients with PDCD [1]; Matched on Age and Sex with Replacement, N 31, log rank P 0.0295): 0.00
DCA Treatment Cohort Mortality Rate (95% CI) (patients with PDCD [1]; Matched on Age and Sex with Unknown Onset Imputed at 0, N 28, log rank P 0.0273): 0.00
DCA Treatment Cohort Mortality Rate (95% CI) (patients with PDCD [1]; Matched on Age and Sex with Unknown Onset Imputed at 0 with Extended Follow-Up, N 28, log rank P 0.0357): 1.55
DCA Treatment Cohort Mortality Rate (95% CI) (patients with PDCD [1]; Matched on Age and Sex, Excluding 1980s Patients with Extended Follow-Up, N 25, log rank P 0.0899): 1.74
DCA Treatment Cohort Mortality Rate (95% CI) (patients with PDCD [1]; Matched on Age and Sex, Excluding 1980s Patients, N 25, log rank P 0.0255): 0.00
DCA Treatment Cohort Mortality Rate (95% CI) (patients with PDCD [1]; Matched on Age, N 32, log rank P 0.0019): 0.00
DCA Treatment Cohort Mortality Rate (95% CI) (patients with PDCD [1]; Matched on Sex and Follow-Up Duration, N 28, log rank P 0.0211): 0.00
DCA Treatment Cohort Mortality Rate (95% CI) (patients with PDCD [1]; Primary Analysis with Extended Follow-Up, N 28, log rank P 0.0357): 1.55
DCA Treatment Cohort Mortality Rate (95% CI) (patients with PDCD [1]; Primary Analysis: Matched on Age and Sex, N 28, log rank P 0.0273): 0
Peripheral Neuropathy Adverse Event Rate [2, 5]: 38%
Peripheral Neuropathy Adverse Events [2, 5]: 3
Peripheral Neuropathy Adverse Event Rate [2, 6]: 25%
Peripheral Neuropathy Adverse Events [2, 6]: 2
Peripheral Neuropathy Adverse Event Rate [2, 7]: 100%
Peripheral Neuropathy Adverse Events [2, 7]: 15
Peripheral Neuropathy Adverse Event Rate [2, 8]: 25%
Peripheral Neuropathy Adverse Events [2, 8]: 5
Peripheral Neuropathy Adverse Event Rate [2, 9]: 36%
Peripheral Neuropathy Adverse Events [2, 9]: 13
Peripheral Neuropathy Adverse Events ([2]; Total of five studies, 87 total patients): 38
Peripheral Neuropathy Adverse Event Rate ([2]; Total of several studies across multiple disease states, 87 total patients): 44%
Dose required for a similar pharmacokinetic exposure ([2]; slow metabolizer group of GSTZ1 haplotypes, fraction of the dose): roughly ½
Recovery from peripheral neuropathy exhibited during DCA administration ([2]; time to recovery): ≤ 9 months
Completion of the double-blind portion (patients with PDCD [3]; 34 PDCD patients, 25 or 12.5 mg/kg/day by haplotype): all of the patients completed
Dropouts for other reasons (patients with PDCD [3]; double-blind portion): zero
Events of peripheral neuropathy (patients with PDCD [3]; double-blind study): zero
Events of neuropathy possibly related to therapy (patients with PDCD [3]; open-label phase, occurred after 18 months of exposure): one
Patients who experienced peripheral neuropathy ([4]; double blind portion): 36%
Patients who experienced peripheral neuropathy ([4]; long-term extension arm): 38%
